This is an account of results in ChEMBL document CHEMBL1201861, “Genomics of Drug Sensitity in Cancer screening data, Wellcome Trust Sanger Institute”.

pIC50: −log10 of the molar value.

Common to all, as to test: cells
In one experiment the test system is DEL. Format: functional, cell-based. The note with it: Homo sapiens.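 Further: growth inhibition of the human DEL cell line, read out with a cell viability assay.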
The subject of the next experiment is IST-SL1. Format: functional, cell-based, Homo sapiens. The note with it: Homo sapiens, IST-SL1.
The test system of another experiment is D-502MG. The class given is functional, cell-based, Homo sapiens. As to conditions: Homo sapiens, D-502MG.
The next experiment deals with A498. The class given is functional, cell-based, Homo sapiens. As to conditions: Homo sapiens, A498.
The subject of the next experiment is NCI-H1304. The class given is functional, cell-based. The note with it: Homo sapiens.
The test system of the next experiment is KALS-1. The class given is functional, cell-based, Homo sapiens. The note with it: Homo sapiens, KALS-1.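 Further: growth inhibition of KALS-1 cells, determined with a cell viability assay.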
The next experiment has as its system VA-ES-BJ. Format: functional, cell-based, Homo sapiens. The note with it: Homo sapiens, VA-ES-BJ.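 Further: growth inhibition of the VA-ES-BJ cell line, read out by a cell viability assay.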
Another experiment has as its system GT3TKB. Format: functional, cell-based, Homo sapiens. The note with it: Homo sapiens, GT3TKB.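 Further: growth inhibition of the cell line, read out with a cell viability assay.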
Another experiment concerns IST-MEL1. The class given is functional, cell-based, Homo sapiens. The note with it: Homo sapiens, IST-MEL1.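 Further: growth inhibition of the cell line, read out with a cell viability assay.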
Another experiment concerns MFM-223. The class given is functional, cell-based, Homo sapiens. The note with it: Homo sapiens, MFM-223.
The next experiment has as its system NB17. Format: functional, cell-based. The note with it: Homo sapiens.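 Further: growth inhibition of NB17 cells, read out with a cell viability assay.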
In the next experiment the test system is RS4-11. Format: functional, cell-based. The note with it: Homo sapiens.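 Further: growth inhibition of RS4-11 cells, read out by a cell viability assay.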
A further experiment has as its system A4-Fuk. Format: functional, cell-based. The note with it: Homo sapiens.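 Further: growth inhibition of A4-Fuk cells, read out by a cell viability assay.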
The test system of another experiment is A101D. The class given is functional, cell-based, Homo sapiens. As to conditions: Homo sapiens, A101D.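 Further: growth inhibition of the cell line, measured with a viability assay.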
For the next experiment, the system named is SBC-1. Format: functional, cell-based. The note with it: Homo sapiens.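 Further: cell viability assay measuring growth inhibition of the SBC-1 cell line, IC50 being the concentration that halves growth.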
Another experiment concerns MS-1. Format: functional, cell-based. The note with it: Homo sapiens.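 Further: growth inhibition of MS-1 cells, read out by cell viability.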
Another experiment relates to SK-UT-1. Format: functional, cell-based, Homo sapiens. As to conditions: Homo sapiens, SK-UT-1.
The next experiment relates to EW-1. Format: functional, cell-based, Homo sapiens. As to conditions: Homo sapiens, EW-1.
Another experiment has as its system RPMI-8866. The class given is functional, cell-based. The note with it: Homo sapiens.
In the next experiment the test system is MMAC-SF. The class given is functional, cell-based, Homo sapiens. The note with it: Homo sapiens, MMAC-SF.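 Further: growth inhibition of human MMAC-SF cells, read out with a cell viability assay.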
In the next experiment the test system is NCI-H1355. Format: functional, cell-based, Homo sapiens. The note with it: Homo sapiens, NCI-H1355.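 Further: growth inhibition of human NCI-H1355 cells, read out by a cell viability assay.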

Description for A101D: SANGER: Inhibition of human A101D cell growth in a cell viability assay.
Description for A4-Fuk: SANGER: Inhibition of human A4-Fuk cell growth in a cell viability assay.
Description for A498: SANGER: Inhibition of human A498 cell growth in a cell viability assay.
Description for D-502MG: SANGER: Inhibition of human D-502MG cell growth in a cell viability assay.
Description for DEL: SANGER: Inhibition of human DEL cell growth in a cell viability assay.
Description for EW-1: SANGER: Inhibition of human EW-1 cell growth in a cell viability assay.
Description for GT3TKB: SANGER: Inhibition of human GT3TKB cell growth in a cell viability assay.
Description for IST-MEL1: SANGER: Inhibition of human IST-MEL1 cell growth in a cell viability assay.
Description for IST-SL1: SANGER: Inhibition of human IST-SL1 cell growth in a cell viability assay.
Description for MFM-223: SANGER: Inhibition of human MFM-223 cell growth in a cell viability assay.
Description for MMAC-SF: SANGER: Inhibition of human MMAC-SF cell growth in a cell viability assay.
Description for MS-1: SANGER: Inhibition of human MS-1 cell growth in a cell viability assay.
Description for NB17: SANGER: Inhibition of human NB17 cell growth in a cell viability assay.
Description for NCI-H1304: SANGER: Inhibition of human NCI-H1304 cell growth in a cell viability assay.
Description for NCI-H1355: SANGER: Inhibition of human NCI-H1355 cell growth in a cell viability assay.
Description for RPMI-8866: SANGER: Inhibition of human RPMI-8866 cell growth in a cell viability assay.
Description for RS4-11: SANGER: Inhibition of human RS4-11 cell growth in a cell viability assay.
Description for SBC-1: SANGER: Inhibition of human SBC-1 cell growth in a cell viability assay.
Description for SK-UT-1: SANGER: Inhibition of human SK-UT-1 cell growth in a cell viability assay.
Description for VA-ES-BJ: SANGER: Inhibition of human VA-ES-BJ cell growth in a cell viability assay.

As to `CC1=C2C[C@H]3[C@@H](CC=C4C[C@@H](O)CC[C@@]43C)[C@@H]2CC[C@]12O[C@@H]1C[C@H](C)CN[C@H]1[C@H]2C` [CYCLOPAMINE], the pIC50 in the experiment on DEL, in the experiment on IST-SL1, in the experiment on D-502MG, with A498, with NCI-H1304 and in the experiment on KALS-1 was under 4.80 in each case. In addition, the pIC50 in the experiment on VA-ES-BJ, in the experiment with GT3TKB, with IST-MEL1, in the experiment on MFM-223, in the experiment on NB17 and with RS4-11 was under 4.80 each time. The pIC50 with A4-Fuk, with A101D, in the experiment with SBC-1, in the experiment with MS-1, in the experiment with SK-UT-1 and with EW-1 was under 4.80 throughout. The pIC50 with RPMI-8866, in the experiment on MMAC-SF and with NCI-H1355 was under 4.80 in each case.

In the case of `CNC(=O)c1cc(Oc2ccc(NC(=O)Nc3ccc(Cl)c(C(F)(F)F)c3)cc2)ccn1` [SORAFENIB], the pIC50 with DEL, in the experiment with IST-SL1, with D-502MG, with A498, in the experiment on NCI-H1304 and in the experiment with KALS-1 was under 5.40 throughout. Moreover, the pIC50 in the experiment on VA-ES-BJ, in the experiment with GT3TKB, in the experiment on IST-MEL1, with MFM-223, with NB17 and in the experiment on A4-Fuk was under 5.40 throughout. For the same compound, the pIC50 with A101D, with SBC-1, in the experiment with MS-1, in the experiment on SK-UT-1, in the experiment with EW-1 and with RPMI-8866 was under 5.40 each time. Also, the pIC50 in the experiment with MMAC-SF and in the experiment on NCI-H1355 was under 5.40 throughout.

In the case of `O=C(/C=C/c1ccccc1)NC(NC(=S)Nc1cccc2cccnc12)C(Cl)(Cl)Cl` (configuration not stated) [SALUBRINAL], the pIC50 in the experiment with DEL, with IST-SL1, in the experiment with D-502MG, with A498, with NCI-H1304 and in the experiment on KALS-1 was under 4.80 throughout. For the same compound, the pIC50 with VA-ES-BJ, in the experiment on GT3TKB, in the experiment with IST-MEL1, with MFM-223, in the experiment on NB17 and with RS4-11 was under 4.80 throughout. Besides, the pIC50 in the experiment with A4-Fuk was 4.85; in the experiment with A101D, 4.86; in the experiment on SBC-1 it was under 4.80; in the experiment with MS-1, under 4.80; in the experiment with SK-UT-1, under 4.80; in the experiment on EW-1 it was 5.01. The pIC50 in the experiment with RPMI-8866, in the experiment with MMAC-SF and in the experiment on NCI-H1355 was under 4.80 each time.

As to `CS(=O)(=O)CCNCc1ccc(-c2ccc3ncnc(Nc4ccc(OCc5cccc(F)c5)c(Cl)c4)c3c2)o1` [LAPATINIB], the pIC50 in the experiment on DEL, in the experiment on IST-SL1, in the experiment on D-502MG, in the experiment with NCI-H1304, in the experiment with KALS-1 and with VA-ES-BJ was under 5.70 in each case. For the same compound, the pIC50 in the experiment on GT3TKB, with IST-MEL1, with MFM-223, in the experiment on NB17, in the experiment with RS4-11 and in the experiment on A4-Fuk was under 5.70 in each case. For the same compound, the pIC50 in the experiment with A101D, with SBC-1, with MS-1, with SK-UT-1, in the experiment on EW-1 and in the experiment on RPMI-8866 was under 5.70 in each case. Also, the pIC50 in the experiment on MMAC-SF and with NCI-H1355 was under 5.70 in each case.

One may read the pIC50 as the negative decadic logarithm of the IC50, by convention in mol/L. Lower therefore signals a large IC50.
